Experimental data published in publication PMC12534982 (Journal of Experimental & Clinical Cancer Research : CR, 2025).

Tests used:
human DHODH = details: cited from earlier work
Δ29 DHODH (N-truncated) = target: T1, Δ29 DHODH (N-truncated) (Homo sapiens, UniProt Q02127); assay: In vitro DHODH enzyme activity assay; type: biochemical; details: 1 mM DHO; ± SD
T1 construct: N-terminal truncated form of human DHODH (Δ29), where the N-terminal transmembrane domain was removed; made in house
Description: The assays to determine the inhibition constants of inhibitors of the recombinant DHODH enzymes are described in [28, 29].
The IC50 values were determined by fitting the equation V = V max/(1 + (I/IC50)^h) to the assay data using SigmaPlot14 (Systat Software Inc.). In this equation, V represents the measured enzyme activity, while V max indicates the maximum enzyme activity reached. I denotes the inhibitor concentration, and h describes the slope of the fitted curve.

colorectal cancer cells [1] = assay: Western blot; type: cell-based, human; details: NK-A 17E-233I 25 µM; Brequinar
Description: Cancer cells (2.2 × 10^6) were cultured in 100-mm Petri dishes and treated with DMSO or NK-A 17E-233I (25 µM) for 48 h. Cells were harvested by scrapping into 2 × Laemmli buffer (4% SDS, 20% glycerol, 125 mM Tris–HCl, pH 6.8) and heated at 100 °C for 5 min. A 4 × Laemmli sample buffer containing β-mercaptoethanol was added to the cell lysates. The proteins were separated using sodium dodecyl sulfate polyacrylamide gel electrophoresis (SDS-PAGE) and subsequently transferred to polyvinylidene fluoride (PVDF) membranes (#88518; Thermo Fisher Scientific) following the manufacturer’s protocols. The membranes were blocked at room temperature for 1 h with 5% dried skimmed milk in Tris-buffered saline with Tween-20 (TBS-T) (20 mM Tris–HCl, pH 7.5, 150 mM NaCl, 0.1% Tween-20), and the blots were incubated with the corresponding antibodies at a dilution of 1:1000–1:3000 in a blocking buffer at 4 °C overnight.
Primary antibodies utilized in this study included: anti-human DHODH (#SC-166348; Santa Cruz), anti–CHK1-pS345 (#2348; Cell Signaling), anti-POLD2 (#29765–1-AP; Proteintech), anti-POLD1 (#15646–1-AP; Proteintech), anti-p53 (#SC-126; Santa Cruz), anti-KRAS, clone 4F3 (#SAB1404011; Sigma-Aldrich), anti-GAPDH (#ab9489; Abcam), anti–α-tubulin (#T9026; Sigma-Aldrich), anti-BAX (#SC-23959; Santa Cruz), anti-cytochrome c (#66264–1-IG; Proteintech), anti-DR5 (#3696; Cell Signaling, dilution 1:500), anti–caspase-8 (#SC-56070; Santa Cruz), and anti–caspase-3 (#9662; Cell Signaling, dilution 1:500). The membranes were incubated at room temperature for 1 h with secondary antibodies (diluted 1:3000–5000), either anti-rabbit (#A0545; Sigma-Aldrich) or anti-mouse IgG-horseradish peroxidase-conjugated (#A9044; Sigma-Aldrich), in TBS-T. The images were analyzed and quantified using ImageStudio software (LI-COR) or ImageQuant 10.2 TL analysis software (Cytiva Life Sciences).

SW620 cells [2] = assay: Mitochondrial respiration (OCR) in intact cells; type: cell-based, human; details: 24 h
Description: Oxygen consumption rate (OCR) was measured using a high-resolution respirometer (Oxygraph-2k, Oroboros Instruments, Innsbruck, Austria). SW620 cells (2.2 × 10^6) were cultured in 100-mm Petri dishes and treated with DMSO or NK-A 17E-233I (25 µM) for 24 h. Cells were harvested at 80% confluency using 0.25% trypsin/EDTA and resuspended in complete DMEM at a concentration of 5 × 10^5 cells/mL. The cells were subsequently analyzed in two 2 mL Oxygraph chambers. Real-time measurements of OCR were conducted at 37 °C under basal conditions and following the sequential addition of inhibitors targeting various mitochondrial respiratory complexes: oligomycin (2.5 μM) to inhibit complex V (to assess ATP-linked respiration and leak rate), carbonyl cyanide-p-trifluoromethoxyphenylhydrazone (FCCP) with stepwise titration in 0.5 μM increments (to evaluate maximal electron transport system respiratory capacity and reserve capacity), and rotenone (0.5 μM) and antimycin A (2.5 μM) to inhibit complex I and complex III, respectively (to measure non-mitochondrial oxygen consumption). The values of OCR were normalized to mitochondrial DNA copy number, which was quantified by qPCR using the primers referenced above. Data analysis was performed using DatLab7 (Oroboros, Austria) software.

SW620 cells [3] = assay: Complex I- and complex II-dependent respiration (permeabilized cells); type: cell-based, human; details: 100 µM, 24 h
Description: Following treatment, cells were detached using trypsin–EDTA, washed with PBS, and resuspended in MiR05 media (composed of 110 mM sucrose, 60 mM potassium-lactobionate, 0.5 mM EGTA, 3 mM MgCl2·6H2O, 20 mM taurine, 10 mM KH2PO4, 20 mM HEPES adjusted to pH 7.1 with KOH at 37 °C, and 1 g/L BSA) at a concentration of 5 × 10^5 cells/mL. The cells were then transferred into 2 mL Oxygraph chambers for real-time measurement of OCR. Initial permeabilization was achieved using 7 μg of digitonin, followed by the sequential addition of substrates and inhibitors: 5 mM ADP, 2 mM malate, 10 μM cytochrome c, 5 mM pyruvate, 10 mM glutamate, 10 mM succinate, 0.5 μM rotenone, and 2.5 μM antimycin A. Mitochondrial membrane integrity was confirmed through the addition of cytochrome c (10 μM), with observed changes in OCR remaining below 10%. Complex I-mediated respiration was evaluated following the addition of complex I substrates (malate/pyruvate/glutamate), while complex II-mediated respiration was assessed in the presence of the complex II substrate (succinate) and the complex I inhibitor (rotenone). Residual oxygen consumption after the addition of antimycin A was subtracted from all the results to yield mitochondria-specific rates. […] Oxygen consumption rates were expressed as picomoles (pmol) per second per million cells (Mill) and normalized to the mitochondrial copy number in each sample.

SW620 cells [4] = assay: DHODH-dependent respiration (permeabilized cells); type: cell-based, human; details: 24 h; NK-A 17E-233I 25 µM, Brequinar 100 µM; excess exogenous DHO
Description: Cells were resuspended in MiR05 medium and transferred into the chambers of the Oxygraph-2k instruments. The OCR in digitonin-permeabilized cells was monitored in the presence of the complex I inhibitor (0.5 μM rotenone), 1 mM DHO, 3 mM ADP, 10 μM cytochrome c, and 30 μM Leflunomide. DHODH-mediated respiration was calculated by subtracting the residual respiration rate after the addition of 30 μM Leflunomide from the respiration rate measured in the presence of 0.5 μM rotenone, 1 mM DHO, 3 mM ADP, and 10 μM cytochrome c.

SW620 cells [5] = details: 96 h
DHODH = system: DHODH; parameters: method as in PMID 35184687; details: 100 µM; same experimental setup; cited from earlier work
colorectal cancer cells [6] = assay: Flow cytometry-based cell cycle analysis; parameters: species or system human; details: washout 12 h; NK-A 17E-233I 25 µM, HU 1 mM
Description: Cancer cells (3 × 10^4) were cultured in 48-well plates and treated with DMSO or NK-A 17E-233I (25 µM) for 24 h. Following treatment, all wells were washed with PBS (#P4417; Sigma-Aldrich), and the cells were collected in Eppendorf tubes. The cells were harvested using 0.25% trypsin (#25200056; ThermoScientific) and 0.02% EDTA (1:1) (#17892; ThermoFisher Scientific) for 2 min, followed by the addition of DMEM. The tubes were then centrifuged at 500 × g for 5 min. The supernatant was discarded, and the pellets were fixed in 70% cold ethanol and stored at -20 °C for at least 1 h. The pellets were resuspended in 1 mL PBS and centrifuged at 500 × g at 4 °C for 5 min. The supernatant was discarded once again, and the pellets were subsequently reconstituted in a solution containing propidium iodide (PI; #25,535–16-4, Merck) and RNase (#N8080119, Applied Biosystems), followed by storage at 4 °C overnight. Cell cycle analysis was conducted using a CytoFLEX flow cytometer (Beckman Coulter; 405 nm laser). Cells were gated based on size and granularity on a forward scatter (FSC)/side scatter (SSC) plot, with cell debris excluded from the analysis. Mean fluorescence intensity from 1 × 10^4 cells was recorded. Data analysis was conducted using FlowJo software v10.8.1 (BD Life Sciences).

T1 sequence (Q02127 29-395, stated change not applied): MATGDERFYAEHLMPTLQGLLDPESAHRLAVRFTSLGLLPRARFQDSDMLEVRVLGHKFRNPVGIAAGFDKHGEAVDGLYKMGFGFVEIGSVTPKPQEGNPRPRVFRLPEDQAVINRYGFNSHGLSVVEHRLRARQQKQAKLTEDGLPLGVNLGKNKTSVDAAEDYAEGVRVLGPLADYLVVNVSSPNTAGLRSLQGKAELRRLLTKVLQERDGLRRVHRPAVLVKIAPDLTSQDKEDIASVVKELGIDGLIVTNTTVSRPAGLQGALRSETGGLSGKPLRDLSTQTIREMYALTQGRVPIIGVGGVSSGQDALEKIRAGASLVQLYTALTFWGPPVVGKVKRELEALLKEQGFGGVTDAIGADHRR

SMILES: O=C1C(O)=C([C@H]2CC[C@H](c3ccc(Cl)cc3)CC2)C(=O)c2ccccc21 [Atovaquone]
- mode of inhibition with respect to DHO (human DHODH): uncompetitive inhibitors

SMILES: Cc1c(-c2ccc(-c3ccccc3F)cc2)nc2ccc(F)cc2c1C(=O)O [Brequinar, reference compound]
- average of the fitted slopes (Δ29 DHODH (N-truncated)): 1.1 ± 0.2
- levels of p53-mutant protein (colorectal cancer cells [1]): did not have an observed effect
- parameters of mitochondrial respiration in intact cells (SW620 cells [2]; 100 µM): decreased most of these respiration parameters
- basal and ATP-linked respiration in intact cells (SW620 cells [2]; NK-A 17E-233I 25 µM, Brequinar 100 µM): significantly decreased
- complex II-mediated respiration (SW620 cells [3]): stimulated
- DHODH-mediated oxygen consumption rate (SW620 cells [4]): reduced
- IC50 (SW620 cells [5]): 100 µM

SMILES: O=C1CC(C(=O)O)NC(=O)N1 (stereo not drawn) [DHO, dihydroorotate]
- ΔTm (DHODH): 3.5 °C

SMILES: NC(=O)NO [HU, hydroxyurea, reference compound]
- cell cycle after washout (colorectal cancer cells [6]): resumed proliferation

SMILES: C/C(O)=C(\C#N)C(=O)Nc1ccc(C(F)(F)F)cc1 [Teriflunomide]
- mode of inhibition with respect to DHO (human DHODH): uncompetitive inhibitors

SMILES: O=C(O)c1cc(=O)[nH]c(=O)[nH]1 [orotate]
- Ki (human DHODH; competitive inhibitor concerning DHO): 11 µM
